Blank lines part the entries; values can stand above or below the compound they belong to.
What was measured:
[1] = system: U2OS-C3 osteosarcoma cells; assay: Immunoblotting for caspase-3 cleavage, thiostrepton and bortezomib; format: cell-based, human; settings: U2OS-C3, sub-apoptotic concentrations, 24 hr
Experimental: U2OS-C3 osteosarcoma, PA-1 ovarian, HCT116 colon and MiaPaca-2 pancreatic cancer cells were cultured in DMEM medium (Invitrogen). HCT-116 and MiaPaca-2 (shFOXM1) cells were cultured in DMEM medium (Invitrogen). MDA-MB231 (parental and shFOXM1) cells were grown in RPMI-1640 medium (Invitrogen). The media were supplemented with 10% fetal bovine serum (Atlanta Biologicals) and 1% penicillin-streptomycin (GIBCO) and the cells were kept at 37° C. in 5% CO2. Stable cell lines were generated by transduction of FOXM1 shRNA lentiviral particles (Sigma) followed by selection with puromycin (Sigma).
Actively dividing cells were seeded into a 100-mm plate at a density of 7.5×10^5 cells. […] Cells were lysed in IP buffer (20 mM HEPES, 1% Triton X-100, 150 mM NaCl, 1 mM EDTA, 1 mM EGTA, 100 mM NaF, 10 mM Na4P2O7, 1 mM sodium orthovanadate, 0.2 mM PMSF supplemented with protease inhibitor tablet and the protein concentration was determined using the Bio-Rad protein assay reagent. Fifty micrograms of the cell lysates were separated by electrophoresis on SDS-polyacrylamide mini gel and transferred to PVDF membrane Immunoblotting was performed with specific antibodies for cleaved caspase-3 (9664 Cell Signaling), FOXM1 (Dr. Costa) and β-actin (A5441, Sigma).

HCT-116 cells = assay: Detection of apoptosis by annexin V-PE/7AAD flow cytometry; format: cell-based, human; settings: HCT-116, 0.75 μM thiostrepton, 10 nM bortezomib, 24 hr; single drugs over the control
Experimental: The AnnexinV-PE staining kit (559763, BD Bio. Sci.) was used for the detection of apoptotic bodies following the vendor's protocol. This kit uses a dual-staining protocol in which the cells show fluorescence of Annexin V (apoptotic cells) and fluorescence of 7AAD (necrotic cells or late apoptotic cells). Briefly the tumor cells were grown at a density of 50% confluence in 100-mm culture dishes and were treated with varying concentrations of the drugs for 24 hr. The cells were trypsinized, washed with PBS, and were processed for labeling with annexinV-7AAD. The labeled cells were analyzed by flow cytometry.

[2] = system: MDA-MB-231-luc solid breast tumor xenografts; assay: MDA-MB-231-luc breast tumor xenograft, combination with bortezomib; format: in vivo, athymic mice; settings: thiostrepton 30 mg/kg i.v., bortezomib 0.5 mg/kg i.p., 5 injections
Experimental: Animals were maintained and treated in accordance with the Animal Care and Use Committee of UIC. […] Treatment began once tumors reached sizes of 100 mm^3. After completion of the dosing schedule, animals were sacrificed and tumors were removed. Tumors were frozen in liquid N2 and kept at −80° C. until further analysis.
Treatments were performed once every two days (3 times a week), during which tumor volumes were monitored with calipers (l×w×h=volume, mm^3). Animals were also weighed once a week. After 5 treatments, animals were sacrificed and tumors removed.
For bioluminescence imaging, animals were injected intraperitonially with 100 mg luciferin/kg 10 min before animals were anaesthetized under isoflurane. Animals were then imaged for tumor-associated bioluminescence (IVIS, Xenogen), where relative units of bioluminescence were quantified as flux (photon/sec) and analyzed with Living Image software.

[3] = system: DEN/PB hepatocellular carcinoma mouse model
Experimental: The efficacy of nanoparticle micelle coated compositions containing thiostrepton in inhibiting tumor growth in DEN/PB hepatocellular carcinoma mouse model was evaluated.
Spontaneous induction of HCC was achieved by intraperitonial injection of the carcinogen diethylnitrosamine (DEN) into 2-day-old neonatal BALB/C mice. Carcinogenesis was further induced by continuing the mice on phenobarbital (PB)-doped drinking water (1 mg/mL). […] As a treatment schedule, animals were treated once every other day (3 times a week) for 5 weeks before sacrifice, after which livers were removed and examined for visible tumor growth (FIG. 14b).
Animal livers were then fixed in 4% paraformaldehyde, embedded in paraffin wax and the right lobe of embedded livers were sectioned and stained with H&E for quantitative analysis of carcinoma formation.

purified proteasomes = molecular target: T1, purified proteasomes (Homo sapiens, UniProt P28072); assay: Proteasome activity assay on purified proteasomes; format: biochemical; settings: bortezomib 5 nM, thiostrepton 20 μM
T1 construct: purchased Enzo
Experimental: To assay proteasome inhibitor activities of proteasome inhibitors purified proteasomes, (0.5 μg, 1 μg/μL) were pre-incubated with inhibitors bortezomib (5 nM, 1 μL of 0.5 μM in DMSO) and/or thiostrepton (20 μM, 1 μL of 2 mM) in 10× assay buffer (10 μL) and H2O (88.5 μL) for 30 min at room temperature. Ac-YVAD-amc substrate (10 μL, 0.5 mM) was then added and the assay solution was incubated at […] for 2 hr, after which solutions were examined for fluorescence at excitation wavelength of 340 nm and emission wavelength of 505 nm. Values are represented as a % of the proteasome activity of non-inhibited proteasomes.

[4] = Solubility observation of thiostrepton in cell media; format: physicochemical; settings: DMSO-dissolved thiostrepton added to cell media

inhibition of purified proteasomes (YVAD-amc cleavage) (purified proteasomes): only slightly hindered
Structure (SMILES): CC(C)C[C@H](NC(=O)[C@H](Cc1ccccc1)NC(=O)c1cnccn1)B(O)O [bortezomib]
caspase-3 cleavage [1]: little or no caspase-3 cleavage
apoptosis (annexin V-PE/7AAD) (HCT-116 cells): 6.9%
tumor size / tumor growth compared to non-treated tumors [2]: slight reduction in tumor growth
increase in tumor size compared to the first day of treatment ([2]; 15 days): 6 fold
body weights of treated animals compared to non-treated animals ([3]; 3 times a week for 5 weeks): did not decrease significantly
number of adenomas compared to livers from non-treated animals ([3]; single treatments, H&E sections): suppression of the number of adenomas
fewer number of visible liver tumors compared to non-treated control animals ([3]; thiostrepton-micelle 30 mg/kg i.v., bortezomib 0.5 mg/kg i.p., 3 times a week for 5 weeks): 50%

Structure (SMILES): C=C(NC(=O)C(=C)NC(=O)c1csc(C2=N[C@@H]3c4csc(n4)[C@H]4NC(=O)c5csc(n5)[C@H]([C@](C)(O)[C@@H](C)O)NC(=O)[C@H]5CSC(=N5)/C(=C/C)NC(=O)[C@H]([C@@H](C)O)NC(=O)c5csc(n5)[C@]3(CC2)NC(=O)[C@H](C)NC(=O)C(=C)NC(=O)[C@H](C)NC(=O)[C@H]([C@@H](C)CC)N[C@@H]2C=Cc3c([C@H](C)O)cc(nc3[C@H]2O)C(=O)O[C@@H]4C)n1)C(N)=O [thiostrepton]
caspase-3 cleavage [1]: little or no caspase-3 cleavage
solubility [4]: highly insoluble
apoptosis (annexin V-PE/7AAD) (HCT-116 cells): 6.1%
inhibition of purified proteasomes (YVAD-amc cleavage) (purified proteasomes): only slightly hindered

From US20130164379A1, “NANOPARTICLE MICELLE COATED COMPOSITIONS” (priority 2011, published 2013)
